Data taken from the supplement of paper PMC13380429.

Key:
[1] = tested on: A549-ACE2 infected with SARS-CoV-2; test: cell count relative to DMSO; higher = less toxic; conditions: 24 h
Caco-2 [2] = test: cell viability relative to DMSO; higher = less toxic; conditions: 72 h
Calu-3 [3] = test: as above; conditions: 72 h
HepG2 [4] = test: as above; conditions: 72 h
U2OS [5] = test: as above; conditions: 72 h
Vero E6 [6] = test: as above; conditions: 72 h
[7] = tested on: A549-ACE2 infected with SARS-CoV-2; test: SARS-CoV-2 infection rate relative to DMSO; higher = more infection; conditions: 24 h
A549-ACE2 [8] = test: phospholipidosis EC50; higher = less potent phospholipidosis inducer
A549-ACE2 [9] = test: drug-induced phospholipidosis relative to tamoxifen; higher = more phospholipidosis
[10] = tested on: A549-ACE2 infected with SARS-CoV-2; test: morphology score (similarity to uninfected cells); higher = more like uninfected cells; conditions: 24 h
Calu-3 [11] = test: relative viability EC50 (midpoint between 100% and the lowest measured viability); higher = less toxic; conditions: 72 h
HepG2 [12] = test: as above; conditions: 72 h
Caco-2 [13] = test: drug sensitivity score (DSS) for viability; higher = more toxic; extreme values may be limits of the assay; conditions: 72 h
Calu-3 [14] = test: as above; conditions: 72 h
HepG2 [15] = test: as above; conditions: 72 h
U2OS [16] = test: as above; conditions: 72 h
Vero E6 [17] = test: as above; conditions: 72 h
Caco-2 [18] = test: relative viability EC50 (midpoint between 100% and the lowest measured viability); higher = less toxic; conditions: 72 h
Vero E6 [19] = test: as above; conditions: 72 h
U2OS [20] = test: as above; conditions: 72 h

Oc1ccc2c(c1)CC[C@H](c1ccccc1)[C@@H]2c1ccc(OCCN2CCCC2)cc1 [lasofoxifene]
Conditions	SARS-CoV-2 infection rate [%]	cell count [%]	cell viability [%]	morphology score	phospholipidosis EC50 [µM]
A549-ACE2 [8], 24 h	–	–	–	–	2.32
A549-ACE2 [8], 48 h	–	–	–	–	2.82
A549-ACE2 [8], 72 h	–	–	–	–	3
Caco-2 [2], 1 nM	–	–	101	–	–
Caco-2 [2], 10 nM	–	–	106	–	–
Caco-2 [2], 100 nM	–	–	97.5	–	–
Caco-2 [2], 1000 nM	–	–	100	–	–
Caco-2 [2], 10000 nM	–	–	60.1	–	–
Calu-3 [3], 1 nM	–	–	88.7	–	–
Calu-3 [3], 10 nM	–	–	96.6	–	–
Calu-3 [3], 100 nM	–	–	97.6	–	–
Calu-3 [3], 1000 nM	–	–	95.9	–	–
Calu-3 [3], 10000 nM	–	–	3.8	–	–
HepG2 [4], 1 nM	–	–	93.4	–	–
HepG2 [4], 10 nM	–	–	97.3	–	–
HepG2 [4], 100 nM	–	–	106	–	–
HepG2 [4], 1000 nM	–	–	93.8	–	–
HepG2 [4], 10000 nM	–	–	27.6	–	–
U2OS [5], 1 nM	–	–	105	–	–
U2OS [5], 10 nM	–	–	99.3	–	–
U2OS [5], 100 nM	–	–	102	–	–
U2OS [5], 1000 nM	–	–	95	–	–
U2OS [5], 10000 nM	–	–	69.3	–	–
Vero E6 [6], 1 nM	–	–	99.5	–	–
Vero E6 [6], 10 nM	–	–	103	–	–
Vero E6 [6], 100 nM	–	–	103	–	–
Vero E6 [6], 1000 nM	–	–	102	–	–
Vero E6 [6], 10000 nM	–	–	61.2	–	–
[1], 0.1 µM	–	105	–	–	–
[1], 0.3 µM	–	102	–	–	–
[1], 1 µM	–	106	–	–	–
[1], 3 µM	–	120	–	–	–
[7], 0.1 µM	98	–	–	–	–
[7], 0.3 µM	95	–	–	–	–
[7], 1 µM	78	–	–	–	–
[7], 3 µM	40	–	–	–	–
[10], 0.1 µM	–	–	–	0.1	–
[10], 0.3 µM	–	–	–	0.07	–
[10], 1 µM	–	–	–	0.48	–
[10], 3 µM	–	–	–	0.72	–

drug-induced phospholipidosis [%], A549-ACE2 [9]
Conditions	0.3 µM	0.833333 µM	3.33333 µM	6.66667 µM	10 µM
24 h	8.45	22	81.6	102	112
48 h	7.62	12.5	79.3	91.7	119
72 h	6.02	12	69	83.8	120

Conditions	drug sensitivity score	relative viability EC50 [µM]
Caco-2 [13]	2	–
Calu-3 [11]	–	2.84
Calu-3 [14]	5.9	–
HepG2 [12]	–	2.46
HepG2 [15]	5	–
U2OS [16]	2.2	–
Vero E6 [17]	1.8	–

CN1CCN(S(=O)(=O)c2ccc(-c3cnc(N)c(C(=O)Nc4cccnc4)n3)cc2)CC1 [AZD2858]
Conditions	SARS-CoV-2 infection rate, [7] [%]	cell count, [1] [%]	cell viability, Caco-2 [2] [%]	cell viability, Calu-3 [3] [%]	cell viability, HepG2 [4] [%]	cell viability, U2OS [5] [%]	cell viability, Vero E6 [6] [%]	morphology score, [10]
1 nM	–	–	96.7	98.2	104	92.4	98.5	–
10 nM	–	–	96.7	102	104	99.5	93.1	–
0.1 µM	103	100	–	–	–	–	–	-0.23
100 nM	–	–	102	99.4	101	96.6	100	–
0.3 µM	100	96	–	–	–	–	–	-0.27
1 µM	86	107	–	–	–	–	–	-0.14
1000 nM	–	–	108	114	97.3	100	102	–
3 µM	95	97	–	–	–	–	–	-0.15
10000 nM	–	–	82.3	85.7	70.4	73.8	78.8	–

drug-induced phospholipidosis [%], A549-ACE2 [9]
Conditions	0.3 µM	0.833333 µM	3.33333 µM	6.66667 µM	10 µM	30 µM
24 h	-4.95	-12.2	-21.2	-22.8	-21.3	-18.1
48 h	1.83	-4.03	-14.2	–	–	–
72 h	1.77	-0.315	-6.78	–	–	–

Conditions	drug sensitivity score	relative viability EC50 [µM]
Caco-2 [13]	0.2	–
Caco-2 [18]	–	> 10
Calu-3 [11]	–	> 10
Calu-3 [14]	0	–
HepG2 [15]	1.7	–
U2OS [16]	1	–
Vero E6 [17]	0.6	–
Vero E6 [19]	–	> 10

Nc1ncnc2c1c(-c1cccc(OCc3ccccc3)c1)cn2C1CC(CN2CCCC2)C1 (stereo in doubt) [NVP-ADW742]
Conditions	SARS-CoV-2 infection rate [%]	cell count [%]	cell viability [%]	morphology score	phospholipidosis EC50 [µM]
A549-ACE2 [8], 24 h	–	–	–	–	5.36
A549-ACE2 [8], 72 h	–	–	–	–	3.26
Caco-2 [2], 1 nM	–	–	98.9	–	–
Caco-2 [2], 10 nM	–	–	96.1	–	–
Caco-2 [2], 100 nM	–	–	98.4	–	–
Caco-2 [2], 1000 nM	–	–	74.6	–	–
Caco-2 [2], 10000 nM	–	–	34.1	–	–
Calu-3 [3], 1 nM	–	–	99.2	–	–
Calu-3 [3], 10 nM	–	–	93.1	–	–
Calu-3 [3], 100 nM	–	–	107	–	–
Calu-3 [3], 1000 nM	–	–	102	–	–
Calu-3 [3], 10000 nM	–	–	44.2	–	–
HepG2 [4], 1 nM	–	–	89.3	–	–
HepG2 [4], 10 nM	–	–	97.4	–	–
HepG2 [4], 100 nM	–	–	101	–	–
HepG2 [4], 1000 nM	–	–	69.9	–	–
HepG2 [4], 10000 nM	–	–	23.2	–	–
U2OS [5], 1 nM	–	–	99.1	–	–
U2OS [5], 10 nM	–	–	98	–	–
U2OS [5], 100 nM	–	–	99	–	–
U2OS [5], 1000 nM	–	–	88.9	–	–
U2OS [5], 10000 nM	–	–	43.7	–	–
Vero E6 [6], 1 nM	–	–	99.9	–	–
Vero E6 [6], 10 nM	–	–	95.6	–	–
Vero E6 [6], 100 nM	–	–	97.6	–	–
Vero E6 [6], 1000 nM	–	–	98.1	–	–
Vero E6 [6], 10000 nM	–	–	58.2	–	–
[1], 0.1 µM	–	104	–	–	–
[1], 0.3 µM	–	93	–	–	–
[1], 1 µM	–	82	–	–	–
[1], 3 µM	–	101	–	–	–
[7], 0.1 µM	98	–	–	–	–
[7], 0.3 µM	94	–	–	–	–
[7], 1 µM	75	–	–	–	–
[7], 3 µM	30	–	–	–	–
[10], 0.1 µM	–	–	–	0.14	–
[10], 0.3 µM	–	–	–	0.2	–
[10], 1 µM	–	–	–	0.46	–
[10], 3 µM	–	–	–	0.75	–

drug-induced phospholipidosis [%], A549-ACE2 [9]
Conditions	0.3 µM	0.833333 µM	3.33333 µM	6.66667 µM	10 µM	30 µM
24 h	8.61	13.3	31.4	113	145	158
48 h	8.35	9.24	33.7	54.9	–	–
72 h	7.79	5.46	31.5	52.2	–	–

Conditions	drug sensitivity score	relative viability EC50 [µM]
Caco-2 [13]	7	–
Caco-2 [18]	–	1.23
Calu-3 [11]	–	3.32
Calu-3 [14]	2.9	–
HepG2 [12]	–	1.19
HepG2 [15]	8.3	–
U2OS [16]	4.9	–
U2OS [20]	–	1.75
Vero E6 [17]	2.4	–

c1cc2c(cc1C1CCCCC1)c1c3n2CCNC3CCC1 (configuration not stated) [tetrindole]
Conditions	SARS-CoV-2 infection rate [%]	cell count [%]	cell viability [%]	morphology score	phospholipidosis EC50 [µM]
A549-ACE2 [8], 24 h	–	–	–	–	6.5
A549-ACE2 [8], 48 h	–	–	–	–	2.52
A549-ACE2 [8], 72 h	–	–	–	–	3.19
Caco-2 [2], 1 nM	–	–	101	–	–
Caco-2 [2], 10 nM	–	–	92.3	–	–
Caco-2 [2], 100 nM	–	–	92.9	–	–
Caco-2 [2], 1000 nM	–	–	98.5	–	–
Caco-2 [2], 10000 nM	–	–	6.9	–	–
Calu-3 [3], 1 nM	–	–	91.3	–	–
Calu-3 [3], 10 nM	–	–	94.9	–	–
Calu-3 [3], 100 nM	–	–	93.8	–	–
Calu-3 [3], 1000 nM	–	–	88.7	–	–
Calu-3 [3], 10000 nM	–	–	0.8	–	–
HepG2 [4], 1 nM	–	–	101	–	–
HepG2 [4], 10 nM	–	–	107	–	–
HepG2 [4], 100 nM	–	–	95.8	–	–
HepG2 [4], 1000 nM	–	–	83.2	–	–
HepG2 [4], 10000 nM	–	–	0.5	–	–
U2OS [5], 1 nM	–	–	94.8	–	–
U2OS [5], 10 nM	–	–	104	–	–
U2OS [5], 100 nM	–	–	97.6	–	–
U2OS [5], 1000 nM	–	–	99.5	–	–
U2OS [5], 10000 nM	–	–	24.1	–	–
Vero E6 [6], 1 nM	–	–	97.9	–	–
Vero E6 [6], 10 nM	–	–	91.4	–	–
Vero E6 [6], 100 nM	–	–	97.1	–	–
Vero E6 [6], 1000 nM	–	–	93.9	–	–
Vero E6 [6], 10000 nM	–	–	1.3	–	–
[1], 0.1 µM	–	102	–	–	–
[1], 0.3 µM	–	101	–	–	–
[1], 1 µM	–	102	–	–	–
[1], 3 µM	–	117	–	–	–
[7], 0.1 µM	102	–	–	–	–
[7], 0.3 µM	96	–	–	–	–
[7], 1 µM	77	–	–	–	–
[7], 3 µM	28	–	–	–	–
[10], 0.1 µM	–	–	–	0.02	–
[10], 0.3 µM	–	–	–	0.07	–
[10], 1 µM	–	–	–	0.29	–
[10], 3 µM	–	–	–	0.87	–

drug-induced phospholipidosis [%], A549-ACE2 [9]
Conditions	0.3 µM	0.833333 µM	3.33333 µM	6.66667 µM	10 µM	30 µM
24 h	5.21	10.2	71.6	84.5	84.9	215
48 h	7.95	8.82	80.8	101	115	–
72 h	7.78	3.52	72.2	101	122	–

Conditions	drug sensitivity score	relative viability EC50 [µM]
Caco-2 [13]	5.4	–
Caco-2 [18]	–	3.05
Calu-3 [11]	–	2.22
Calu-3 [14]	7.4	–
HepG2 [12]	–	1.88
HepG2 [15]	8.3	–
U2OS [16]	4.3	–
U2OS [20]	–	3.11
Vero E6 [17]	6.4	–
Vero E6 [19]	–	2.68
